The experiment concerns the target T1, carbonic anhydrase (CA) from bovine erythrocytes (Bos taurus, UniProt P00921).
T1 construct: gene CA2; native full-length enzyme from bovine erythrocytes, N-terminal Ser1, 18 Lys
The experiment can be described thus: UV monitoring of 4-nitrophenyl acetate hydrolysis (esterase activity). The format is biochemical. The note with it: read-out: apparent IC50.

The results in this text go back to publication PMC10530293, “Supramolecular multivalency effects enhance imine formation in aqueous medium allowing for dynamic modification of enzymatic activity” (Chemical Science, 2023).

T1 sequence (P00921 2-260): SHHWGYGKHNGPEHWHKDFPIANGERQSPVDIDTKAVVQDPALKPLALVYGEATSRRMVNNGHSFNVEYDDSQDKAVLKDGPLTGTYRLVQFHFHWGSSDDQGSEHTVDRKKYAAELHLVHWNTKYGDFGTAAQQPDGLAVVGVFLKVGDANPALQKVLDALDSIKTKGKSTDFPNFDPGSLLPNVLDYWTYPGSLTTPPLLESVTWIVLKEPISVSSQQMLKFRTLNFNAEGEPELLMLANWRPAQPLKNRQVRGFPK

As usually defined, the IC50 is the midpoint of a concentration-inhibition curve. On to `O=Cc1c(F)c(F)c(SC[C@H](NC(=O)OCc2ccccc2)C(=O)O)c(F)c1F` [A8], for which the IC50 is about 1000 nM.
